Results taken from ChEMBL document CHEMBL1136597, “A structure-permeability study of small drug-like molecules” (Bioorg Med Chem Lett, 2003).

Assay: Distribution coefficient of octanol and phosphate buffered saline at pH 7.4
Type: physicochemical
Settings: read-out: Log Doct/PBS

logD | SMILES
1.92 | Nc1cccc(Cn2cnc3ccccc32)c1
2.08 | CS(=O)(=O)Nc1cccc(Cn2cnc3ccccc32)c1
1.78 | O=S(=O)(O)c1ccc(Cn2cnc3ccccc32)cc1
-1.03 | N=C(N)c1cccc(Cc2ncccn2)c1
-2.1 | O=C(O)c1ccc(Cn2ccnc2)cc1
-0.72 | O=C(O)c1cccc(Cn2cnc3ccccc32)c1

Assay: Partition coefficient (logD7.4) measured using octanol and PBS at pH7.4
Type: physicochemical
Settings: pH 7.4, read-out: LogD7.4

logD | SMILES
-0.61 | O=C(O)c1ccc(Cn2cnc3ccccc32)cc1
1.74 | N#Cc1cccc(Cn2cccn2)c1
-0.01 | NC(=O)c1cccc(Cn2ccnc2)c1
0.27 | c1cc(Cn2cnc3ccccc32)cc(-c2nn[nH]n2)c1
-1.13 | O=C(O)Cc1ccc(Cn2cnc3ccccc32)cc1
-1.8 | O=C(O)Cc1ccc(Cn2cccn2)cc1
1.46 | N#Cc1cccc(Cc2ncccn2)c1
-1.28 | c1cnc(Cc2cccc(-c3nn[nH]n3)c2)nc1
0.71 | NC(=O)c1cccc(Cn2cccn2)c1
2.91 | c1ccc(Cn2cnc3ccccc32)cc1
-1.98 | O=C(O)c1cccc(Cc2ncccn2)c1
2.47 | N#Cc1cccc(Cn2cnc3ccccc32)c1
1.7 | NC(=O)c1cccc(Cn2cnc3ccccc32)c1
-1.11 | NCc1cccc(Cc2ncccn2)c1
0.21 | NCc1cccc(Cn2cnc3ccccc32)c1
1.01 | N#Cc1cccc(Cn2ccnc2)c1
0.28 | NC(=O)c1cccc(Cc2ncccn2)c1
-0.77 | NCc1cccc(Cn2cccn2)c1
1.04 | NS(=O)(=O)c1ccc(Cn2cnc3ccccc32)cc1
-1.65 | O=C(O)c1ccc(Cn2cccn2)cc1
-2.37 | O=C(O)Cc1ccc(Cn2ccnc2)cc1
-2.2 | O=C(O)c1ccc(Cc2ncccn2)cc1
-1.62 | O=C(O)c1cccc(Cn2cccn2)c1

SMILES | logD
c1ccc(Cn2ccnc2)cc1 [BENZYLIMIDAZOLE] | 1.78

Assay: Permeability directional ratio (PB-A/PA-B) in Caco-2 cell
Type: ADME, cell-based
Settings: human, read-out: PDR

efflux ratio | SMILES
180 | c1ccc(-c2nn[nH]n2)c(Cn2cnc3ccccc32)c1
145 | c1cc(Cn2cnc3ccccc32)cc(-c2nn[nH]n2)c1
7 | O=S(=O)(O)c1ccc(Cn2cnc3ccccc32)cc1
3 | N=C(N)c1cccc(Cc2ncccn2)c1
129 | c1ccc2c(c1)ncn2Cc1ccc(-c2nn[nH]n2)cc1
20 | c1cnc(Cc2cccc(-c3nn[nH]n3)c2)nc1
1 | O=C(O)c1ccc(Cn2ccnc2)cc1
3 | O=C(O)c1cccc(Cn2cnc3ccccc32)c1
